Source: article PMC10255713, “Palm Fruit (Phoenix dactylifera L.) Pollen Extract Inhibits Cancer Cell and Enzyme Activities and DNA and Protein Damage” (Nutrients, 2023)

How the values were obtained:
[1] = tested on: Candida albicans (ATCC 10231); assay: Agar-well diffusion susceptibility test; assay type: cell-based; details: C. albicans; Control 2 for yeast, 10 mg/disc
Method: (§1) The pre-cultures of these pathogens were prepared through separate cultivation on Muller–Hinton broth at 37 °C for 24 h. […] After cultivation at 37 °C for 24 h, the developed inhibition zones (Halo zones) around wells indicated positive results. Amoxicillin (AX-25) and ampicillin (AM-10) were included as reference antibacterial drugs, while clotrimazole (CLT) and amphotericin-B (AmB) were applied as reference antifungal drugs.

[2] = target: T1, porcine α-amylase (Sus scrofa, UniProt P00690); assay: Porcine α-amylase inhibition assay; assay type: biochemical
T1 sequence (P00690 16-511): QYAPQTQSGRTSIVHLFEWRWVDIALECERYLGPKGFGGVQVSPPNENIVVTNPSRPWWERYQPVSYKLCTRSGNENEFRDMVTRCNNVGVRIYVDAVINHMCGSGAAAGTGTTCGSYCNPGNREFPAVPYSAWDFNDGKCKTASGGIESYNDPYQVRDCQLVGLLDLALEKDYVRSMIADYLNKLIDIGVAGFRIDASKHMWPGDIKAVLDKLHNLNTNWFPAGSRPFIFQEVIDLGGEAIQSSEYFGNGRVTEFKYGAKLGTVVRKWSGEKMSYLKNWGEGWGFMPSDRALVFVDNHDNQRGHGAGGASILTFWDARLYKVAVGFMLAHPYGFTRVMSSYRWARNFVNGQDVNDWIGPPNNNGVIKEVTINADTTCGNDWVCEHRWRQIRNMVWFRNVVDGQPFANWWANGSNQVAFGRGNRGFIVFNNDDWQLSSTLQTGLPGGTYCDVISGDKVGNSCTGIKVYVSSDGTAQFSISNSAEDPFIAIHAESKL
Method: In this study, the inhibition activity of porcine α-amylase was evaluated following a previously reported method. […] The combination was incubated at 25 °C for a specific period, following which starch solution mixed with sodium phosphate (0.02 M pH 6.9) and sodium chloride (6 mM) was added and incubated at 25 °C for 10 min. After the incubation, 1 mL of dinitrosalicylic acid (color reagent) was included in the mixture at 100 °C for 10 min to stop the reaction, followed by chilling to 25 °C. The absorbance of the resulting combination was measured at 540 nm, after adding 1 mL of deionized water. The percentage of inhibition activity of porcine α-amylase was calculated using Equation (1).

[3] = tested on: mushroom tyrosinase; assay: Tyrosinase inhibition assay; assay type: biochemical; details: for tyrosinase inhibition: highest concentration (5 mg/mL); for Tyrosinase inhibition activity IC50: mean ± SD, n = 3
Method: To assess the inhibition of tyrosinase activity, a previously reported method was followed in this study. […] The mixture was incubated at 37 °C for 10 min, and then 1 mL of 50 units/mL mushroom tyrosinase liquefied in 0.2 M, pH 6.8 phosphate buffer was added. The resulting mixture was incubated for an additional 10 min, and the absorbance was measured at 475 nm. Ethanol (50%) was used as a blank, while 1 mL of deionized water was a control. The percentage of tyrosinase inhibition activity was calculated using Equation (1).

[4] = Nitric oxide radical (NO) scavenging, Griess reaction; details: for NO-scavenging maximum inhibition: at 5 mg/mL; for Nitric Oxide scavenging IC50: wet basis, mean ± SD, n = 3
Method: The reaction mixture contained 2 mL of sodium nitroprusside (10 mM), 0.5 mL of saline phosphate buffer, and 0.5 mL of the test samples. The mixtures were incubated for 150 min at 25 °C. After incubation, 0.5 mL of the reaction mixture was combined with 1 mL of sulfanilic acid reagent (0.33% in 20% glacial acetic acid). Following a 5 min wait, 1 mL of naphthyl ethylene diamine dihydrochloride (0.1%) was added. The mixtures were left for 30 min at room temperature, and the absorbance was measured at 540 nm. The percentage of nitrites was calculated using Equation 1, as described earlier.

[5] = Ferric-reducing/antioxidant power (FRAP) assay; details: for maximum FRAP value: at 5 mg/mL; for FRAP antioxidant inhibition activity IC50: wet basis, mean ± SD, n = 3
Method: The FRAP reagent was prepared by mixing TPTZ (10 mM mixture) in 40 mM HCl, FeCl3 (20 mM), and acetate buffer (pH 3.6, 0.3 M) in a ratio of 1:1:10 (v/v/v). Next, 1 mL of the test sample was mixed with 2 mL of freshly prepared FRAP reagent, and the solutions were incubated for 30 min at 37 °C. The absorbance of the resulting mixture was measured at 593 nm. Deionized water was employed as a blank, and FeSO4 was used to establish the calibration curve. The FRAP values were expressed as µmol of Fe (II).

[6] = Total antioxidant capacity (TAC) phosphomolybdate assay; details: for maximum total antioxidant capacity value (absorbance at 695 nm): at 5 mg/mL; for Total Antioxidant Capacity IC50: wet basis, mean ± SD, n = 3
Method: Briefly, a reagent containing sodium phosphate (28 mM), sulfuric acid (0.6 M), and ammonium molybdate (4 mM) was added to 0.1 mL of the test samples, and the mixture was incubated at 95 °C for 90 min. After cooling, the absorbance of the mixture was measured at 695 nm. A higher absorbance value indicates a greater antioxidant capacity of the tested samples.

[7] = DPPH free radical-scavenging assay; details: wet basis; mean ± SD, n = 3
Method: The percentage inhibition of these radical compounds was determined using Equation (1):% Inhibition DPPH^• = (Abs. control − Abs. sample)/(Abs. control) × 100(1)
The absorbance of the DPPH^• mixture without the test sample was considered as the Abs. control test. Absorbance was measured with a Varian CARY 50 Scan UV–VIS Spectrophotometer equipped with a Cary 50 Microplate Reader (Varian, Inc., Walnut Creek, CA, USA).

[8] = ABTS free radical-scavenging assay; details: for ABTS maximum antioxidant activity: at 5 mg/mL
Method: The ABTS^• radicals are employed as a model system to assess the antioxidant activity of the compounds [33]. The percentage inhibition of the ABTS^• radicals by the test compounds was calculated using Equation 1, as described earlier.

[9] = tested on: plasmid pBR322 DNA; assay: Free radical-induced (H2O2 + UV) DNA damage assay; assay type: biochemical
Method: Once the reaction was completed, the tested samples were electrophoresed through a polysaccharide agarose 0.8% gel, and we stained the electrophoresed gel with ethidium bromide. The electrophoresed gel was analyzed, and we captured photographs of the electrophoresed gel using Image Lab 4.1 software, version 6.1.0. (Bio-Rad, Hercules, CA, USA).

[10] = tested on: bovine serum albumin (BSA); assay: Protein oxidation produced by AAPH (SDS-PAGE); details: AAPH 20 mM, 30 min
Method: The mixture was then incubated in a shaking water bath for 30 min at 37 °C. A control sample not including AAPH was also prepared. After incubation, the mixture was loaded onto an SDS-PAGE 10% gel under reduction conditions for 5 min at 100 °C. Images of the stained gel were captured using a Chemi-Doc MV gel documentation system (Bio-Rad, Hercules, CA, USA). The intensity of the bands was determined to quantify the aggregate of protein damage for all bands employing Image Lab 4.1 Software version 6.1.0 (Bio-Rad, Hercules, CA, USA). […] The use of SDS-PAGE and staining methods provides a visual representation of the extent of protein damage and allows for quantification of the results.

[11] = tested on: Salmonella typhimurium (ATCC 14028); assay: Agar-well diffusion susceptibility test; assay type: cell-based; details: S. typhimurium
Method: as §1

[12] = tested on: Staphylococcus aureus (ATCC 25923); assay: Agar-well diffusion susceptibility test; assay type: cell-based; details: S. aureus
Method: as §1

[13] = tested on: Pseudomonas aeruginosa (ATCC 27853); assay: Agar-well diffusion susceptibility test; assay type: cell-based; details: P. aeruginosa
Method: as §1

[14] = tested on: Escherichia coli (ATCC 25922); assay: Agar-well diffusion susceptibility test; assay type: cell-based; details: E. coli
Method: as §1

[15] = tested on: Streptococcus mutans (ATCC 25175); assay: Agar-well diffusion susceptibility test; assay type: cell-based; details: S. mutans
Method: as §1

[16] = target: acetylcholinesterase (Homo sapiens, UniProt P22303); assay: Acetylcholinesterase inhibition assay; assay type: biochemical
acetylcholinesterase, sequence (P22303 32-614, species assumed): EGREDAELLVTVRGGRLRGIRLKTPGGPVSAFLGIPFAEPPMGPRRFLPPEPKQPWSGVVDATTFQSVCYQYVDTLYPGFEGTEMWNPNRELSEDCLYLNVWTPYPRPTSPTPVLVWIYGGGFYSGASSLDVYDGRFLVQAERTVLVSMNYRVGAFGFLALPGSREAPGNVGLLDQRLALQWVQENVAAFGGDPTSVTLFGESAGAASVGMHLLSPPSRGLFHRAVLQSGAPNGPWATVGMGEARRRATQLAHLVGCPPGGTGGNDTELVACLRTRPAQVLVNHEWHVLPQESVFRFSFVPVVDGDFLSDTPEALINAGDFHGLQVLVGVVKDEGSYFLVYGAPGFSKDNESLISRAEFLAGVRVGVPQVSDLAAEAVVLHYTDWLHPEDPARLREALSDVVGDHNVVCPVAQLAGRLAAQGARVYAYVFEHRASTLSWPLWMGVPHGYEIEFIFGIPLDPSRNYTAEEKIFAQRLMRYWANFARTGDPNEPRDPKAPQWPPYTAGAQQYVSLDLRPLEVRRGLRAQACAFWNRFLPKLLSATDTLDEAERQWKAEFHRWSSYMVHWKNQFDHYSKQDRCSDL
Method: The mixture was then incubated at room temperature for 15 min. After this, 475 µL of 3 mM DTNB solution and 75 µL of […] 15 mM were added to the mixture and incubated for an additional 30 min at room temperature. Finally, the absorbance of the mixture was measured at 405 nm, and the percentage of inhibition activity of acetylcholinesterase was calculated by Equation (1), as explained earlier.

[17] = highest concentration tested (5 mg/mL)

C[C@@H]1[C@H](O)[C@@H](C)/C=C/C=C/C=C/C=C/C=C/C=C/C=C/[C@H](O[C@@H]2O[C@H](C)[C@@H](O)[C@H](N)[C@@H]2O)C[C@@H]2O[C@](O)(C[C@@H](O)C[C@@H](O)[C@H](O)CC[C@@H](O)C[C@@H](O)CC(=O)O[C@H]1C)C[C@H](O)[C@H]2C(=O)O [amphotericin-B]
inhibition-zone diameter [1]: 25.50 ± 2.30 mm

C[C@H]1O[C@H](O[C@H]2[C@H](O)[C@@H](O)[C@@H](O[C@H]3[C@H](O)[C@@H](O)C(O)O[C@@H]3CO)O[C@@H]2CO)[C@H](O)[C@@H](O)[C@@H]1N[C@H]1C=C(CO)[C@@H](O)[C@H](O)[C@H]1O (some centres unmarked) [Acarbose, acarbose]
inhibition at 5000 µg/mL [2, 17]: 99.12 ± 0.1%

O=C1O[C@H]([C@@H](O)CO)C(O)=C1O [VC, vitamin C]
tyrosinase inhibition [3]: 98.72 ± 0.15%
Tyrosinase inhibition activity IC50 [3]: 1881.00 ± 48.56 µg/mL
NO-scavenging maximum inhibition [4]: 56.55 ± 1.52%
Nitric Oxide scavenging IC50 [4]: 2710.00 ± 13.35 µg/mL
maximum FRAP value [5]: 10,233.67 ± 243.72 µmol of Fe (II)
FRAP antioxidant inhibition activity IC50 [5]: 743.60 ± 30.11 µg/mL
maximum total antioxidant capacity value (absorbance at 695 nm) [6]: 0.041 ± 0.000
Total Antioxidant Capacity IC50 [6]: 3005.00 ± 72.45 µg/mL
DPPH antioxidant inhibition activity IC50 [7]: 881.70 ± 13.38 µg/mL
ABTS maximum antioxidant activity [8]: 90.13 ± 0.04%
DNA damage inhibition activity IC50 [9]: 505.00 ± 21.63 µg/mL
α-amylase activity inhibition [2, 17]: 93.18 ± 0.18%
Porcine α-amylase inhibition activity IC50 ([2]; mean ± SD, n = 3): 97.62 ± 8.14 µg/mL
BSA damage inhibition activity IC50 [10]: 25.32 ± 1.29 µg/mL

CC1(C)S[C@@H]2[C@H](NC(=O)[C@H](N)c3ccc(O)cc3)C(=O)N2[C@H]1C(=O)O [amoxicillin]
inhibition-zone diameter ([11]; Control 1, 25 mg/disc): 30.00 ± 1.30 mm
inhibition-zone diameter ([12]; Control 1, 25 mg/disc): −ve
inhibition-zone diameter ([13]; Control 1, 25 mg/disc): 28.00 ± 2.76 mm
inhibition-zone diameter ([14]; Control 1, 25 mg/disc): 25.00 ± 2.40 mm
inhibition-zone diameter ([15]; Control 1, 25 mg/disc): 37.00 ± 2.80 mm

CC1(C)S[C@@H]2[C@H](NC(=O)[C@H](N)c3ccccc3)C(=O)N2[C@H]1C(=O)O [ampicillin]
inhibition-zone diameter ([11]; Control 2, 10 mg/disc): 10.00 ± 0.80 mm
inhibition-zone diameter ([12]; Control 2, 10 mg/disc): −ve
inhibition-zone diameter ([13]; Control 2, 10 mg/disc): 13.20 ± 0.68 mm
inhibition-zone diameter ([14]; Control 2, 10 mg/disc): −ve
inhibition-zone diameter ([15]; Control 2, 10 mg/disc): 18.00 ± 1.48 mm

C[C@@H]1O[C@@H](OC[C@H]2O[C@@H](Oc3c(-c4ccc(O)c(O)c4)oc4cc(O)cc(O)c4c3=O)[C@H](O)[C@@H](O)[C@@H]2O)[C@H](O)[C@H](O)[C@H]1O [Rutin, rutin]
tyrosinase inhibition [3]: 55.00 ± 0.23%
Tyrosinase inhibition activity IC50 [3]: 494.40 ± 27.86 µg/mL
NO-scavenging maximum inhibition [4]: 79.01 ± 0.07%
Nitric Oxide scavenging IC50 [4]: 270.10 ± 3.51 µg/mL
IC50 [16]: 1490 µM
inhibition at 5000 µg/mL ([16]; highest concentration tested (5 mg/mL), read-out: AChE activity inhibition): 15.92 ± 0.13%
maximum FRAP value [5]: 10,644.00 ± 86.02 µmol of Fe (II)
FRAP antioxidant inhibition activity IC50 [5]: 391.00 ± 7.46 µg/mL
maximum total antioxidant capacity value (absorbance at 695 nm) [6]: 1.57 ± 0.01
Total Antioxidant Capacity IC50 [6]: 17,600 ± 41.64 µg/mL
DPPH antioxidant inhibition activity IC50 [7]: 417.80 ± 5.78 µg/mL
ABTS maximum antioxidant activity [8]: 92.69 ± 0.32%
ABTS antioxidant inhibition activity IC50 ([8]; wet basis, mean ± SD, n = 3): 6.50 ± 0.08 µg/mL
DNA damage inhibition activity IC50 [9]: 15.00 ± 0.22 µg/mL
IC50 [2]: 142 µM
inhibition at 5000 µg/mL [2, 17]: 91.51 ± 0.51%
BSA damage inhibition activity IC50 [10]: 3.68 ± 0.35 µg/mL

O=c1cc(CO)occ1O [Kojic Acid, kojic acid]
tyrosinase inhibition [3]: 99.88 ± 0.11%
